Like-named read-outs stand apart in the source and are kept apart here. Each block holds one compound with its values, some of them ahead of it.
How the values were obtained:
β-catenin signaling = test: β-catenin transcriptional activity (TOPflash) in HEK293T cells; type: cell-based; conditions: 5 μM each; control 1.23±0.11
skin papillomas = test: DMBA/TPA-induced skin papillomas in FVB mice; type: in vivo
[1] = Pharmacokinetic study of phosphosulindac amide and sulindac, single oral dose; type: in vivo, mice; conditions: mouse, plasma, label = analyte
[2] = Pharmacokinetics after inhalational administration of PS; type: in vivo, mice; conditions: after 8 min inhalation, label = analyte
A549 cells [3] = test: Cell proliferation by BrdU staining; type: cell-based, human; conditions: 60 μM (indomethacin equimolar)
PGE2 production = PGE2 production by A549 cells; type: cell-based, human
SW480 colon cancer cells = test: SW480 colon cancer xenografts, prevention protocol, PTI; type: in vivo, mice; conditions: oral gavage; PTI 10 mg/kg/d, indomethacin 2 mg/kg/d; end of study
[4] = mouse, in vivo, ip
SW480 cells = test: Cell cycle by PI staining; type: cell-based, human; conditions: 1×IC50 PTI; indomethacin at equimolar concentration; control 56.8
[5] = Pharmacokinetics of PTI and indomethacin, single i.p. dose
COX-2 = COX-2 (Homo sapiens, UniProt P35354); test: COX fluorescent inhibitor screening assay, COX-2; type: biochemical
Sequence of COX-2 (P35354 18-604): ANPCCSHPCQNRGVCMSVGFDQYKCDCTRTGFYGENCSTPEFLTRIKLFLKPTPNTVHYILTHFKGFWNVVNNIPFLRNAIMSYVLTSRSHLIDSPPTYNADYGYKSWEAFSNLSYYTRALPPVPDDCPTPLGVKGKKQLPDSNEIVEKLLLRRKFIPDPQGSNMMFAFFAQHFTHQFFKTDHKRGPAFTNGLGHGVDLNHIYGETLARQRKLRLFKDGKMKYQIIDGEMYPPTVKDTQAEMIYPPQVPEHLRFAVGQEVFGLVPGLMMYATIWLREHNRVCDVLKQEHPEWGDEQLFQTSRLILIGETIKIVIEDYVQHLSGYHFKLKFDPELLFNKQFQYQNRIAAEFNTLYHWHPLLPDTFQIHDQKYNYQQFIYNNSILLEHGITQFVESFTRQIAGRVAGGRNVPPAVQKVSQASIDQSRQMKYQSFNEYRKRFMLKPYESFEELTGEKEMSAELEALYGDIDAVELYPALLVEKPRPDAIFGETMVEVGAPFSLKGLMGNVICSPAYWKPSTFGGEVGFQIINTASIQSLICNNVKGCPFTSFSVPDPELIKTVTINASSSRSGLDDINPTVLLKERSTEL

A549 cells [6] = test: Cellular uptake of PTI and indomethacin; type: in vitro ADME, human
Procedure: A549 cells were seeded in […] plates and allowed to grow as a monolayer. […] The incubation was terminated by washing the cell monolayer with complete medium and PBS. The cells were harvested by scraping, extracted by two-fold volume of acetonitrile and centrifuged at 13,000 rpm for 5 min. Drug levels were determined by HPLC.

[7] = Stability of PTI in complete media containing 10% serum; conditions: after 24 h
[8] = system: A549 human non-small cell lung cancer xenografts; test: A549 lung cancer xenografts, treatment protocol, PTI; type: in vivo, mice; conditions: 2 weeks, vs control
Procedure: Lung cancer treatment protocol: A549 cells (1.5×106) suspended in 100 μl of PBS (25% Hydrogel) were injected subcutaneously into both the left and right flanks of 5-6-week old female NOD SCID mice (Taconic Farms, Germantown, N.Y.). When the average tumor volume reached 100 mm3, the mice were divided into 3 groups: vehicle, PTI 10 mg/kg/d, and PTI 15 mg/kg/d (n=10/group); treatment lasted 2 weeks. At the end of the treatment, animals were euthanized and the xenografts were harvested.

porcine liver esterases = test: Stability of PTI to purified porcine liver esterases; conditions: 4 IU/ml porcine liver esterase, 20 min
liver esterases = test: as above; conditions: pig, half-life
A549 cells [9] = test: Apoptosis by annexin V and PI staining; type: cell-based, human; conditions: 72 h, control 7.5%
Procedure: After the A549 cells were treated with the test drug in 6-well plates for 72 h, all cell populations (suspended and attached) were collected and stained with annexin V-FITC and propidium iodide (PI) (Invitrogen, Carlsbad, Calif.) for 15 min. Annexin V-FITC and PI fluorescence intensities were analyzed by flow cytometry with a FACScalibur. Annexin V(+)/PI(−) cells are early apoptotic cells; annexin V(+)/PI(+) cells are late apoptotic cells; and annexin V(−)/PI(+) cells are necrotic cells.

[10] = Cardiotoxicity, heart tissue histology; type: in vivo, mice; conditions: treated for 1.5 months, H&E
Source text: Heart tissue sections from mice treated with PTI for 1.5 months were examined and scored histologically, following H&E staining and light microscopy for tissue damage and for the presence of inflammatory cells.

[11] = system: Salmonella typhimurium (TA98 and TA100); test: Salmonella plate incorporation mutagenicity assay; conditions: 1.5 to 5000 μg/plate, with or without rat liver S9
A549 xenografts = test: Immunohistochemistry of A549 xenografts (PCNA, TUNEL); type: in vivo, mice
Procedure: (§1) Staining for PCNA and p-p65 (Ser276) was performed as described. Apoptosis was determined immunohistochemically by the terminal deoxynucleotidyl transferase-mediated deoxyuridine triphosphate-biotin nick end-labeling (TUNEL) assay.

HT29 = test: Cell viability (MTT), HT29; type: cell-based; conditions: Homo sapiens, HT-29; HT29, 72 h
[12] = Gastrointestinal toxicity in rats
MDA-MB-231 = test: Cell viability (MTT), MDA-MB-231; type: cell-based; conditions: Homo sapiens, MDA-MB-231, 72 h
COX-1 = biological target: T1, COX-1 (Ovis aries, UniProt P05979); test: COX fluorescent inhibitor screening assay, COX-1; type: biochemical
T1 construct: purchased Cayman Chemical Co
T1 sequence (P05979 25-600): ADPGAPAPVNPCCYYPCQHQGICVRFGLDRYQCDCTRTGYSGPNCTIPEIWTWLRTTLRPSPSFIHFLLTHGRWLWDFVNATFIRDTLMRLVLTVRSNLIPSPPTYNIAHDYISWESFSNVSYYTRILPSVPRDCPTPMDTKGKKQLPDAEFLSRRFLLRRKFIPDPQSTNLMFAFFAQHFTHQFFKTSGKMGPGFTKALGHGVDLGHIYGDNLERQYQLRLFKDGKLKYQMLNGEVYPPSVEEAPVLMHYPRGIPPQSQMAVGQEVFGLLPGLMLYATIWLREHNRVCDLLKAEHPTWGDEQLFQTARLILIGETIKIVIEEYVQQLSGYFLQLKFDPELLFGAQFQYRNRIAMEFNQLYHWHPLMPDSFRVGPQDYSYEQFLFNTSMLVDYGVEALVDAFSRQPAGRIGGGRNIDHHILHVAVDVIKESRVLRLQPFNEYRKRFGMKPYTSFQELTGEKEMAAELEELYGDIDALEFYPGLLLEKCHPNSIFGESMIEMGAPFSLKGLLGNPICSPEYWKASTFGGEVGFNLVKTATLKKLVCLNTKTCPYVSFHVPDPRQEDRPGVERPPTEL

p65 subunit of NF-κB = test: NF-κB activation in A549 xenografts (p-p65 Ser276); type: in vivo, mice; conditions: vs controls
Procedure: as §1
To further explore the mechanism of action of PTI, we investigated the activation of NF-κB in the A549 lung tumor xenografts from the control and PTI-treated groups, by determining Ser276 phosphorylation of the p65 subunit of NF-κB. A shown in FIG. 28, compared to controls, PTI decreased the levels of p-p65 Ser276 in tumor xenografts by 90.0% (p=0.004).

[13] = system: A549 human non-small lung cancer cells; test: Orthotopic A549 lung tumor model in nude mice; type: in vivo; conditions: for reduction based on lung tumor weight / lung weight / reduction of lung cancer based on fluorescence: 200 mg/kg once a week for 8 weeks
U87 cells = test: 24-h growth inhibition of U87 glioblastoma cells; type: cell-based; conditions: Homo sapiens, U-87 MG; U87, 24 h
Procedure: U87 cells were treated with sulindac and ibuprofen as well as with the compounds. U87 is a human primary glioblastoma cell line, formally known as U-87 MG. This cell line has epithelial morphology, and is one of the most frequently used glioblastoma cell lines.

A431 skin cancer cells = test: Cellular uptake in A431 cells (HPLC); conditions: 100 μM for 1 h
[14] = type: in vivo, mice; conditions: 55° C. hot plate, 30 min after single i.p. dose; 100 mg/kg, PI-PEG 1,600 mg/kg; control 1.91 ± 0.46
[15] = Biodistribution of liposomal phospho-ibuprofen amide in mice; type: in vivo
[16] = system: AGS human gastric cancer cells; type: in vivo, mice; conditions: i.p. in corn oil, 3 weeks; PSA-B 200, PSA-G 200, PIA-B 160, PVA-T 100 mg/kg
[17] = system: A431 human squamous cell carcinoma cells; type: in vivo, mice; conditions: hydrogel, topical, 2 weeks, estimated 80 mg/kg
U87 glioblastoma cells = test: Apoptosis (annexin V), PV and PGIA; type: cell-based, human; conditions: 24 h; PGIA 200 μM, PV 40 μM, alone or together
Procedure: Apoptosis: Cells (1.0×10^5 cells/well) were treated with or without PV, PGIA or valproic acid (VPA) for 24 or 48 h. After treatment, cells were trypsinized, stained with Annexin V-FITC (100× dilution, Invitrogen) and propidium iodide (PI) 0.5 μg/ml and the fluorescence intensity was analyzed by FACScaliber.

[18] = 66 mg/kg, single oral dose of sulindac equimolar to PSA, read-out: AUC0-24 h, sulindac administration
[19] = BALB/c nude, mouse, inhaled or intranasal, plasma

Compound: NCCC[C@](N)(C(=O)O)C(F)F [DFMO, α-difluoromethylornithine, reference compound]
luciferase/renilla activity (β-catenin signaling): 1.18±0.01
papilloma multiplicity, oral administration (skin papillomas; oral): failed to reduce papilloma multiplicity
reduction of tumor burden (average tumor volume/mouse) (skin papillomas; topical): ~90%
thickness of the epidermis (skin papillomas; topical): partial effect
reduction of tumor number (papillomas/mouse) (skin papillomas; topical application): merely stabilized disease progression

Compound: CSc1ccc(/C=C2/C(C)=C(CC(=O)O)c3cc(F)ccc32)cc1 [Sulindac sulfide 146, sulindac sulfide]
AUC(0-t) [1, 18]: 691 µM·h
AUC(0-t) ([1]; single oral dose 100 mg/kg PSA, read-out: AUC0-24 h, PSA administration): 17.9 µM·h
AUC [2, 19]: 66.9 µM·h
Tmax ([2]; lung): 4 h
Tmax ([2]; plasma): 4 h

AUC0-24 h (for PTI: PTI plus its metabolite) [4]: 500 µM·h
peak plasma level [4]: 127 µM
time of peak plasma level [4]: 1 h
Compound: COc1ccc2c(c1)c(CC(=O)O)c(C)n2C(=O)c1ccc(Cl)cc1 [Indomethacin, indomethacin, reference compound]
decrease of proportion of BrdU positive cells (A549 cells [3]): 15%
PGE2 levels induced by the calcium ionophore A23187 (PGE2 production): prevented the increase in PGE2 levels
reduction of tumor growth (SW480 colon cancer cells): no significant effect
proportion of cells in G0/G1 phase (SW480 cells): 57.7%

Compound: CCOP(=O)(OCC)OCCc1ccc(OC(=O)Cc2c(C)n(C(=O)c3ccc(Cl)cc3)c3ccc(OC)cc23)cc1 [PTI, [1-(4-Chloro-benzoyl)-5-methoxy-2-methyl-1H-indol-3-yl]-acetic acid 4-[2-(diethoxy-phosphoryloxy)-ethyl]-phenyl ester]
Cmax ([5]; mouse, in vivo, ip, 100 mg/kg): 46 µM
plasma detectability of PTI ([5]; single i.p. 100 mg/kg PTI): undetectable at 4 h
time of maximum concentration of PTI ([5]; single i.p. 100 mg/kg PTI): 2 h
selectivity for COX-2 over COX-1 (COX-2): 12.6 fold
IC50 (COX-2; purified COX-2): 71.7 µM
cellular uptake, fold greater than indomethacin (A549 cells [6]; 6 h incubation, 50 to 200 μM): about 200 fold
cellular uptake, fold greater than indomethacin (A549 cells [6]; 16 h): about 230 fold
hydrolyzed [7]: 40%
reduction of tumor volume ([8]; 10 mg/kg/d): 68%
reduction of tumor volume ([8]; 15 mg/kg/d): 91%
decrease of proportion of BrdU positive cells (A549 cells [3]): 96%
PGE2 levels induced by the calcium ionophore A23187 (PGE2 production): prevented the increase in PGE2 levels
intact PTI remaining (porcine liver esterases): approximately 20%
half-life (liver esterases; 2 IU/ml esterase): 5 min
half-life (liver esterases; 4 IU/ml esterase): 2 min
annexin V+ cells (A549 cells [9]; 1.5×IC50): 12.3%
annexin V+ cells (A549 cells [9]; 2×IC50): 71.4%
reduction of tumor growth (SW480 colon cancer cells): 69%
cardiotoxicity [10]: No differences in cardiotoxicity
genotoxicity (reverse mutations) [11]: no significant genotoxicity
proportion of cells in G0/G1 phase (SW480 cells): 69.7%
cell proliferation (PCNA) (A549 xenografts; PTI-treated tumors, controls 59.7±7.5%): 40.2±4.5%
apoptosis index (TUNEL) (A549 xenografts; control 3.3±0.3%): 5.8±1.2%
increase of apoptosis index (A549 xenografts; vs control): 75.8%
IC50 (HT29): 87 µM
reduction in gastrointestinal toxicity ([12]; PTI vs indomethacin): 60%
rats that developed ulcers ([12]; gavage 4 days, indomethacin 4.75 mg/kg/day, PTI 10 mg/kg/day): 40%
IC50 (MDA-MB-231): 23 µM
IC50 (COX-1): 905 µM
decrease of p-p65 Ser276 levels in tumor xenografts (p65 subunit of NF-κB): 90.0%

IC50 (U87 cells): ≥ 1000 µM
Compound: CC(C)Cc1ccc(C(C)C(=O)O)cc1 (centres unmarked) [Ibuprofen, reference compound]
reduction based on lung tumor weight / lung weight [13]: 19%
reduction of lung cancer based on fluorescence [13]: 57%

AUC(0-t) [1, 18]: 385 µM·h
IC50 (U87 cells): ≥ 1000 µM
AUC [2, 19]: 49.5 µM·h
Compound: CC1=C(CC(=O)O)c2cc(F)ccc2/C1=C\c1ccc([S+](C)[O-])cc1 (centres unmarked) [Sulindac]

Compound: CC1=C(CC(=O)O)c2cc(F)ccc2/C1=C\c1ccc(S(C)(=O)=O)cc1 [Sulindac sulfone 147, sulindac sulfone]
AUC(0-t) [1, 18]: 93.4 µM·h
Tmax ([2]; BALB/c nude, mouse, inhaled or intranasal, lung, read-out: Tmax): 8 h
AUC [2, 19]: 142 µM·h
Cmax [2, 19]: 10.4 µM
Tmax ([2]; BALB/c nude, mouse, inhaled or intranasal, plasma, read-out: Tmax): 8 h

Compound: CCOP(=O)(OCC)OCCCCOC(=O)C(C)c1ccc(CC(C)C)cc1 (centres unmarked) [PI 132]
fold increase of cellular level over the other two compounds (A431 skin cancer cells): at least 300 fold
cellular content (cellular extract) (A431 skin cancer cells; limit of detection 2.5 pmol): 750 pmol
latency values (mean±SD) [14]: 8.53 ± 0.81 s
IC50 (U87 cells): 98 µM

Compound: CCOP(=O)(OCC)OCCCCNC(=O)C(C)c1ccc(CC(C)C)cc1 (centres unmarked) [Phospho-ibuprofen amide 105, Phosphoric acid diethyl ester 4-[2-(4-isobutyl-phenyl)-propionylamino]-butyl ester]
latency values (mean±SD) [14]: 3.80 ± 0.46 s
blood and tissue levels of intact compound ([15]; compared with corresponding carboxylic ester compound): significant blood and tissue levels of intact compound
biodistribution in major organs ([15]; liposomal, single 200 mg/kg i.v., 1 h): preferentially accumulated in lungs
reduction based on lung tumor weight / lung weight [13]: 80%
reduction of lung cancer based on fluorescence [13]: 95%
lung cancer on fluorescence images of lungs ([13]; liposomal, I.V.): essentially eliminated lung cancer
tumor growth inhibition [16]: 33.8%
tumor growth inhibition [17]: 51.5%

Compound: CCCC(CCC)C(=O)OCCCCOP(=O)(OCC)OCC [PV]
fold-increase of annexinV (+) cells (U87 glioblastoma cells): 3.0 fold

From patent US20130225529A1, “PHOSPHO-ESTER DERIVATIVES AND USES THEREOF” (priority 2012, published 2013)
